Results reported in patent publication US6582947B1, “Medical use of gene and vector encoding a multisubstrate deoxyribonucleoside kinase” (BIO VICI, priority 1998, dated 2003).
pIC50: −log10 of the molar value. Read-outs that look alike come from different tables or passages of the source.

What was measured:
[1] = target: T1, HSV-1 TK (Human herpesvirus 1, UniProt P0DTH5)
Description: (§1) The competion experiments were carried out in the following way: The standard reaction mixture contained 2.5 mM MgCl2, 10 mM dithio threitol, 1 mg/ml bovine serum albumin, 2.5 mM ATP, 10 mM NaF, 2 μM methyl-^3H-thymidine, an appropriate amount of a nucleoside analog and the multisubstrate deoxyribonucleoside kinase in an amount resulting in a linear conversion of the substrate, in a total reaction mixture of 50 μl of 50 mM Tris-HCl, pH 8.0. The reaction mixture was incubated at 37° C. for 30 min, and the reaction was terminated by spotting on to DE-81 discs (Whatman). The discs were instantly immersed and washed in ethanol (70%). The filters were dried and assayed for radioactivity in a tuluene-based scintillant.

[2] = system: HSV-TK; conditions: cited from earlier work
[3] = target: T2, deoxyguanosine kinase (Homo sapiens, UniProt Q16854); conditions: cited from earlier work
T2 sequence (Q16854 40-277): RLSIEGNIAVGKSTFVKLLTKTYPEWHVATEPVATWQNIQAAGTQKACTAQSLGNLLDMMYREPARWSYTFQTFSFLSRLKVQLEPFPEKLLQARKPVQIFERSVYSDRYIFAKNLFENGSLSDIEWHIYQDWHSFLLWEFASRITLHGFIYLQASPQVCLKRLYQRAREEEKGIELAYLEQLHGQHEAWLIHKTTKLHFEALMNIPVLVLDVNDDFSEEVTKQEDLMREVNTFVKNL

[4] = target: T1, HSV-1 TK; experiment: biochemical
Description: as §1

[5] = target: T3, recombinant Dm-dNK (Drosophila melanogaster, UniProt Q9XZT6); experiment: Phosphoryl transfer assay, substrate specificity of recombinant Dm-dNK; conditions: naturally occurring nucleosides
T3 sequence (Q9XZT6 1-250): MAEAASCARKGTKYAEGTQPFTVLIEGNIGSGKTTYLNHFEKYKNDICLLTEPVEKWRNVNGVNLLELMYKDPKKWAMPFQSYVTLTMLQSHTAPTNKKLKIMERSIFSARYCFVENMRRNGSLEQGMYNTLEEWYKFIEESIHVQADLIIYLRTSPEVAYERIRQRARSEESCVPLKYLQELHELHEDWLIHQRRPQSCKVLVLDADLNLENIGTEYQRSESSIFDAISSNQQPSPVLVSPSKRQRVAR
Description: A phosphor transferase assay was used to determine the substrate specificity of the putative deoxyribonucleoside kinase. […] The samples were incubated 30 min at 37° C. 2 μl of the reaction mixtures were spotted on poly(ethyleneimine) cellulose F thin layer chromatography sheets (Merck Inc.) and the nucleotide separated in a buffer containing NH4OH:isobutyric acid:dH2O (1:66:33). The sheets were autoradiographed using phosphoimaging plates (BAS 1000, Fujix).

T1 sequence (P0DTH5 whole entry): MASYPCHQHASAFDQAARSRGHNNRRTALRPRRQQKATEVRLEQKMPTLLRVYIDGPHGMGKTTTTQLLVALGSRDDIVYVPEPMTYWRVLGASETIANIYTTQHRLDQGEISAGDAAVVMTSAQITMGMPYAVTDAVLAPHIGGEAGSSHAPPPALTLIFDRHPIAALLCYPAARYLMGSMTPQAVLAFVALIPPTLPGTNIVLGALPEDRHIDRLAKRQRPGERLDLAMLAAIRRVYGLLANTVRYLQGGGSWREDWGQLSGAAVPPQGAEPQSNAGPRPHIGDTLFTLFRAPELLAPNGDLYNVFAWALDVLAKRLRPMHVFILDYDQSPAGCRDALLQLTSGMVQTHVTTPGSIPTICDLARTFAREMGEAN

SMILES | pIC50 [1] | phosphorylation by HSV-TK (in words) [2] | phosphorylation by deoxyguanosine kinase (in words) [3] | pIC50 [4] | phosphorylation by the enzyme (in words) [5]
Nc1ccn(C2CSC(CO)O2)c(=O)n1 (stereo not shown) [3TC] | < 3.00 | cannot phosphorylate | does not phosphorylate |  | 
Nc1ccn([C@@H]2O[C@H](CO)[C@@H](O)[C@@H]2O)c(=O)n1 [AraC, 1-β-D-arabinofuranosylcytosine] |  | cannot phosphorylate |  | < 3.00 | 
O=c1[nH]c(=O)n([C@H]2C[C@H](O)[C@@H](CO)O2)cc1/C=C/Br [BVDU, (E)-5-(2-bromovinyl)-2′-deoxyuridine] |  |  | does not phosphorylate | 5.52 | 
O=c1[nH]c(=O)n([C@@H]2O[C@H](CO)[C@@H](O)[C@@H]2O)cc1/C=C/Br [BVaraU, (E)-5-(2-bromovinyl)-1-β-D-arabinofuranosyl-uracil] |  |  | does not phosphorylate | 5.40 | 
Nc1nc(Cl)nc2c1ncn2[C@H]1C[C@H](O)[C@@H](CO)O1 [CdA, 2-chloro-2′-deoxyadenosine] |  | cannot phosphorylate |  | < 3.00 | 
O=c1[nH]c(=O)n([C@@H]2O[C@H](CO)[C@@H](O)[C@@H]2F)cc1I [FIAU, 1-(2-deoxy-2-fluoro-β-D-arabinofuranosyl)-5-iodouracil] |  |  |  | 5.70 | 
O=c1[nH]c(=O)n([C@H]2C[C@H](O)[C@@H](CO)O2)cc1F [FdU, 5-fluorodeoxyuridine] |  |  |  | 4.24 | 
Nc1ccn([C@@H]2O[C@H](CO)[C@@H](O)C2(F)F)c(=O)n1 [dFdC, 2′,2′-difluorodeoxycytidine] |  | cannot phosphorylate | does not phosphorylate | < 3.00 | 
Nc1ccn([C@H]2CC[C@@H](CO)O2)c(=O)n1 [ddC, 2′,3′-dideoxycytidine] |  | cannot phosphorylate | does not phosphorylate | < 3.00 | 
Nc1ncnc2c1ncn2[C@H]1C[C@H](O)[C@@H](CO)O1 [deoxyadenosine] |  |  |  |  | efficiently phosphorylated
Nc1ccn([C@H]2C[C@H](O)[C@@H](CO)O2)c(=O)n1 [deoxycytidine] |  |  |  |  | efficiently phosphorylated
Nc1nc2c(ncn2[C@H]2C[C@H](O)[C@@H](CO)O2)c(=O)[nH]1 [deoxyguanosine] |  |  |  |  | efficiently phosphorylated
